Experimental data from US20030207812A1, “Cd45 inhibitors” (priority 2002, published 2003).
Where a SMILES comes first, the peptide text is derived from it. The star is where a group is joined. Phenanthrenequinone2carbonyl = O=C1C(=O)c2cc(C(=O)*)ccc2-c2ccccc21; 3Phenanthroyl(9,10-dioxo) = O=C1C(=O)c2ccc(C(=O)*)cc2-c2ccccc21

How the values were obtained:
CD45 [1] = molecular target: T1, CD45 (Homo sapiens, UniProt P08575); experiment: Phosphatase assay using pNPP as substrate; assay type: biochemical
T1 construct: incubating the cytosolic portion of CD45 with the compounds and p-nitrophenyl phosphate (pNPP); purchased BIOMOL (Plymouth Meeting, Pa.)
T1 sequence (P08575 599-1306 limits assumed): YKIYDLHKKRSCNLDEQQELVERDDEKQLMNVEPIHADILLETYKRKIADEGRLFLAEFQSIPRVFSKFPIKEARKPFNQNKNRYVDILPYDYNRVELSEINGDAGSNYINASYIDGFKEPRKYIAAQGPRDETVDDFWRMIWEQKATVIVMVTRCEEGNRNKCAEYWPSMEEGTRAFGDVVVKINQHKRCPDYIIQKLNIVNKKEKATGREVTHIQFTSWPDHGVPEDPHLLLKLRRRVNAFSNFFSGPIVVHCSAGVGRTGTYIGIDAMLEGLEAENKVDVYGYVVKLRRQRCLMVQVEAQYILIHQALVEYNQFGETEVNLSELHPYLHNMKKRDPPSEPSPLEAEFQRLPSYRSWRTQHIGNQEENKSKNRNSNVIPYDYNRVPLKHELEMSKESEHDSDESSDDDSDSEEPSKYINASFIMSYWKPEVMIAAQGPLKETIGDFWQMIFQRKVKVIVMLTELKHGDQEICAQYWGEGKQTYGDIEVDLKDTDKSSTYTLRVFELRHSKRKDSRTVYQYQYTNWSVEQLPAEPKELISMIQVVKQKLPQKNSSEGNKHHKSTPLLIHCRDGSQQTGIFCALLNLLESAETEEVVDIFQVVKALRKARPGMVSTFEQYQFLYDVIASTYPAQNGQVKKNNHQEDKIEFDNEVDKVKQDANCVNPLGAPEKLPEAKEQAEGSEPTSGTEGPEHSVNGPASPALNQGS
Method: Phosphatase assay using pNPP as substrate:
CD45 enzyme was obtained from BIOMOL (Plymouth Meeting, Pa.). Phosphatase activity was assayed in a buffer containing final concentrations of 25 mM imidazole at pH 7.0, 50 mM NaCl, 2.5 mM ethylenediaminetetraacetic acid (“EDTA”), 5 mM dithiothreitol (“DTT”) and 10 μg/mL bovine serum albumin (“BSA”) using pNPP as a substrate.

in vitro = details: human
CD45 [2] = molecular target: T1, CD45; experiment: Phosphatase assay using lck 10-mer as substrate; assay type: biochemical
Outline: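 Enzyme incubated with lck phosphopeptide TEGQpYQPQP for 1.5 h at room temperature in 25 mM HEPES pH 7.2, 5 mM DTT, 10 μg/mL BSA, 5% DMSO final. Compounds tested from 30 to 0.01 μM. Released phosphate detected with malachite-type Green Reagent, absorbance at 620 nm after 30 min.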

[3] = CD45 phosphatase, lck carboxy-terminal peptide TEGQpYQPQP substrate, pH 7.2, read-out: Ick IC50

| Compound | IC50 (CD45 [1]; pH 7, read-out: pNPP IC50) [nM] | CC50 (in vitro) [nM] | IC50 (CD45 [2]) [nM] | IC50 (CD45 [1]) [nM] | IC50 (CD45 [2]; [3]) [nM] |
| --- | --- | --- | --- | --- | --- |
| NC(=O)CC[C@H](NC(=O)[C@H](CCC(=O)O)NC(=O)c1ccc2c(c1)-c1ccccc1C(=O)C2=O)C(=O)NCC(=O)N[C@@H](CCC(N)=O)C(=O)N1CCC[C@H]1C(=O)O [Example 31] ({3Phenanthroyl(9,10-dioxo)}-EQGQP-OH) | 600 | > 30000 | 2500 |  |  |
| NC(=O)CC[C@H](NC(=O)CNC(=O)[C@H](CCC(=O)O)NC(=O)CNC(=O)c1ccc2c(c1)-c1ccccc1C(=O)C2=O)C(=O)N1CCC[C@H]1C(=O)O [Example 32] ({3Phenanthroyl(9,10-dioxo)}-GEGQP-OH) | 700 | > 30000 | 2300 |  |  |
| NC(=O)CC[C@H](NC(=O)c1ccc2c(c1)-c1ccccc1C(=O)C2=O)C(=O)N[C@@H](CCC(=O)O)C(=O)NCC(=O)N[C@@H](CCC(N)=O)C(=O)N1CCC[C@H]1C(=O)O [Example 33] ({3Phenanthroyl(9,10-dioxo)}-QEGQP-OH) | 1100 | > 30000 | 2500 |  |  |
| NC(=O)CC[C@H](NC(=O)CNC(=O)c1ccc2c(c1)-c1ccccc1C(=O)C2=O)C(=O)NCC(=O)N[C@@H](CCC(=O)O)C(=O)N1CCC[C@H]1C(=O)O [Example 35] ({3Phenanthroyl(9,10-dioxo)}-GQGEP-OH) | 900 | > 30000 | 1400 |  |  |
| NC(=O)CC[C@H](NC(=O)[C@@H]1CCCN1C(=O)[C@H](CCC(N)=O)NC(=O)CNC(=O)c1ccc2c(c1)-c1ccccc1C(=O)C2=O)C(=O)NCC(=O)O [Example 36] ({3Phenanthroyl(9,10-dioxo)}-GQPQG-OH) |  | > 30000 |  | 1000 | 2200 |
| NC(=O)CC[C@H](NC(=O)c1ccc2c(c1)-c1ccccc1C(=O)C2=O)C(=O)N[C@@H](CCC(N)=O)C(=O)N1CCC[C@H]1C(=O)N[C@@H](CCC(N)=O)C(=O)NCC(=O)O [Example 37] ({3Phenanthroyl(9,10-dioxo)}-QQPQG-OH) |  | > 30000 |  | 1100 | 2100 |
| NC(=O)CC[C@H](NC(=O)CNC(=O)c1ccc2c(c1)-c1ccccc1C(=O)C2=O)C(=O)N1CCC[C@H]1C(=O)N[C@@H](CCC(=O)O)C(=O)NCC(=O)O [Example 39] ({3Phenanthroyl(9,10-dioxo)}-GQPEG-OH) |  | > 30000 |  | 700 | 2300 |
| O=C(O)CC[C@H](NC(=O)[C@@H]1CCCN1C(=O)CNC(=O)CNC(=O)c1ccc2c(c1)C(=O)C(=O)c1ccccc1-2)C(=O)NCC(=O)O [Example 40] (Phenanthrenequinone2carbonyl-GGPEG-OH) | 600 | > 30000 | 3900 |  |  |
| O=C(O)CC[C@H](NC(=O)c1ccc2c(c1)C(=O)C(=O)c1ccccc1-2)C(=O)NCC(=O)N1CCC[C@H]1C(=O)N[C@@H](CCC(=O)O)C(=O)NCC(=O)O [Example 41] (Phenanthrenequinone2carbonyl-EGPEG-OH) | 1400 | > 30000 | 3500 |  |  |
| N=C(N)NCCC[C@H](NC(=O)c1ccc2c(c1)C(=O)C(=O)c1ccccc1-2)C(=O)NCC(=O)N1CCC[C@H]1C(=O)N[C@@H](CCC(=O)O)C(=O)NCC(=O)O [Example 42] (Phenanthrenequinone2carbonyl-RGPEG-OH) | 900 | > 30000 | 3500 |  |  |
| O=C(O)CC[C@H](NC(=O)[C@@H]1CCCN1C(=O)[C@H](CCC(=O)O)NC(=O)CNC(=O)c1ccc2c(c1)C(=O)C(=O)c1ccccc1-2)C(=O)NCC(=O)O [Example 43] (Phenanthrenequinone2carbonyl-GEPEG-OH) | 1900 | > 30000 | 3800 |  |  |
| O=C(O)CC[C@H](NC(=O)c1ccc2c(c1)C(=O)C(=O)c1ccccc1-2)C(=O)N[C@@H](CCC(=O)O)C(=O)N1CCC[C@H]1C(=O)N[C@@H](CCC(=O)O)C(=O)NCC(=O)O [Example 44] (Phenanthrenequinone2carbonyl-EEPEG-OH) | 1100 | > 30000 | 3800 |  |  |
